Assay: mn = molality of the nth substance listed, in mol/kg
Conditions: 100 kPa, Liquid, Direct current cell with electrodes

F[B-](F)(F)F.[Na+] [sodium tetrafluoroborate] + CN(C)C=O
Conditions	molar conductivity [S·m2/mol]
283.15 K, m1 = 0.0001924	0.006693
283.15 K, m1 = 0.0003952	0.0066184
283.15 K, m1 = 0.0006451	0.0065533
283.15 K, m1 = 0.0008265	0.0065141
283.15 K, m1 = 0.001295	0.006434
283.15 K, m1 = 0.002093	0.0063285
283.15 K, m1 = 0.00309	0.0062291
283.15 K, m1 = 0.004094	0.0061456
283.15 K, m1 = 0.005982	0.0060221
283.15 K, m1 = 0.007983	0.0059166
283.15 K, m1 = 0.009964	0.005832
283.15 K, m1 = 0.01199	0.0057567
288.15 K, m1 = 0.0001674	0.007209
288.15 K, m1 = 0.000442	0.007102
288.15 K, m1 = 0.000627	0.0070513
288.15 K, m1 = 0.0007814	0.0070146
288.15 K, m1 = 0.001324	0.0069135
288.15 K, m1 = 0.002128	0.0067991
288.15 K, m1 = 0.003087	0.0066947
288.15 K, m1 = 0.00408	0.0066044
288.15 K, m1 = 0.006001	0.0064671
288.15 K, m1 = 0.007983	0.0063522
288.15 K, m1 = 0.009981	0.0062566
288.15 K, m1 = 0.01195	0.0061747
293.15 K, m1 = 0.0002336	0.007686
293.15 K, m1 = 0.0004583	0.0076005
293.15 K, m1 = 0.0006194	0.0075538
293.15 K, m1 = 0.0008218	0.0075029
293.15 K, m1 = 0.001262	0.0074142
293.15 K, m1 = 0.001996	0.0072971
293.15 K, m1 = 0.003085	0.0071656
293.15 K, m1 = 0.004073	0.0070679
293.15 K, m1 = 0.005971	0.0069203
293.15 K, m1 = 0.007974	0.0067931
293.15 K, m1 = 0.009986	0.0066867
293.15 K, m1 = 0.01198	0.0065964
298.15 K, m1 = 0.0001864	0.008228
298.15 K, m1 = 0.0003604	0.008147
298.15 K, m1 = 0.0005971	0.0080676
298.15 K, m1 = 0.000833	0.0080036
298.15 K, m1 = 0.001297	0.0079038
298.15 K, m1 = 0.002158	0.0077599
298.15 K, m1 = 0.00307	0.0076432
298.15 K, m1 = 0.004131	0.0075305
298.15 K, m1 = 0.005971	0.0073766
298.15 K, m1 = 0.007994	0.0072373
298.15 K, m1 = 0.009949	0.0071242
298.15 K, m1 = 0.01197	0.0070255
303.15 K, m1 = 0.0001663	0.008767
303.15 K, m1 = 0.0003918	0.008654
303.15 K, m1 = 0.0005861	0.0085855
303.15 K, m1 = 0.0007746	0.008529
303.15 K, m1 = 0.001279	0.0084093
303.15 K, m1 = 0.002088	0.0082612
303.15 K, m1 = 0.003044	0.0081277
303.15 K, m1 = 0.004105	0.0080061
303.15 K, m1 = 0.005964	0.0078384
303.15 K, m1 = 0.007948	0.0076906
303.15 K, m1 = 0.01001	0.0075615
303.15 K, m1 = 0.01198	0.0074596
308.15 K, m1 = 0.0001761	0.009295
308.15 K, m1 = 0.0003871	0.009183
308.15 K, m1 = 0.0005655	0.0091142
308.15 K, m1 = 0.0008095	0.0090359
308.15 K, m1 = 0.001266	0.0089201
308.15 K, m1 = 0.002043	0.0087655
308.15 K, m1 = 0.003019	0.0086178
308.15 K, m1 = 0.004064	0.0084888
308.15 K, m1 = 0.005984	0.0083031
308.15 K, m1 = 0.007986	0.0081431
308.15 K, m1 = 0.01001	0.0080069
308.15 K, m1 = 0.01196	0.0079009
313.15 K, m1 = 0.0001113	0.009888
313.15 K, m1 = 0.0003812	0.00972
313.15 K, m1 = 0.0006135	0.0096252
313.15 K, m1 = 0.000783	0.0095672
313.15 K, m1 = 0.001297	0.0094265
313.15 K, m1 = 0.002162	0.0092463
313.15 K, m1 = 0.003051	0.0091053
313.15 K, m1 = 0.004099	0.0089684
313.15 K, m1 = 0.005996	0.0087733
313.15 K, m1 = 0.008013	0.0086011
313.15 K, m1 = 0.01004	0.0084556
313.15 K, m1 = 0.01199	0.0083454
318.15 K, m1 = 0.0001596	0.0104
318.15 K, m1 = 0.0004215	0.01024
318.15 K, m1 = 0.0005697	0.010177
318.15 K, m1 = 0.0008753	0.010067
318.15 K, m1 = 0.001339	0.009935
318.15 K, m1 = 0.002012	0.0097823
318.15 K, m1 = 0.003095	0.009596
318.15 K, m1 = 0.004095	0.0094578
318.15 K, m1 = 0.005994	0.0092497
318.15 K, m1 = 0.008014	0.0090658
318.15 K, m1 = 0.009953	0.0089174
318.15 K, m1 = 0.01195	0.0087989
